According to article PMC9226124, “Macrocycle-stabilization of its interaction with 14-3-3 increases plasma membrane localization and activity of CFTR” (Nature Communications, 2022):
Values joined by “and” are separate entries in the source; they are usually repeats but may differ in a detail not shown here. Equal values may be shown once.

What was measured:
Format in all cases: binding
[1] = molecular target: T1, 14-3-3β/CFTRpS753pS768 complex (Homo sapiens, UniProt P13569+P31946); assay: Dose-response fluorescence polarization (FP) assay, compound titration; conditions: for FP signal: With 14-3-3
T1 construct: His6 (cleaved yes); made in house; peptide synthetic
T1 sequence (P31946 whole entry): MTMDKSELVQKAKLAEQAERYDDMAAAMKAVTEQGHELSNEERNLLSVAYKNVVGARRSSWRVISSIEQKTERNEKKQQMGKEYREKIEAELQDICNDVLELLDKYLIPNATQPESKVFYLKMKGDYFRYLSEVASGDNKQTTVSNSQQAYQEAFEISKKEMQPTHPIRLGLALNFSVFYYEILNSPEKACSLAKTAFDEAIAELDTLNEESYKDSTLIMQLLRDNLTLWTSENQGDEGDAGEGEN
T1 sequence (P13569 747-774 limits assumed): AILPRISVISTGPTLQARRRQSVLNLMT
Method in brief: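 Compounds were titrated in two-fold dilutions against 10 μM 14-3-3β and FITC-CFTR pS753pS768 peptide (100 nM or 10 nM). Buffer: 10 mM HEPES pH 7.4, 150 mM NaCl, 0.1% Tween20, 1 mg/mL BSA. Polarization was read at ex 485/em 535 nm, and EC50 was derived from a four-parameter variable-slope fit.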

[2] = molecular target: T2, FITC-labeled CFTRpS753pS768 peptide (no 14-3-3) (Homo sapiens, UniProt P13569); assay: Dose-response FP control assay in the absence of 14-3-3; conditions: No 14-3-3
T2 construct: made in house; host or cells: synthetic peptide
Method in brief: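 Control run without 14-3-3: FITC-CFTR pS753/pS768 peptide (100 nM or 10 nM) with compound titrated in twofold dilutions in 10 mM HEPES pH 7.4, 150 mM NaCl, 0.1% Tween20, 1 mg/mL BSA. Fluorescence polarization read at ex 485/em 535 nm, background subtracted, n = 3. Curves fitted by four-parameter log(agonist) vs. response.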

[3] = molecular target: T1, 14-3-3β/CFTRpS753pS768 complex; assay: FP assay, 14-3-3β titration at constant compound concentration (apparent KD); conditions: 100 μM compound, vs […] μM without compound
Method: FC-A (100 µM) was added as a positive control and DMSO as the negative control. […] Background polarization was subtracted from all values, n = 3 technical replicates. […] Source data are provided as a Source Data file. […]
The FITC-labeled peptides were dissolved in FP buffer (10 mM HEPES pH 7.4, 150 mM NaCl, 0.1% Tween20, 1 mg/mL BSA) to a final concentration of 100 nM or 10 nM. […] The dilution series were made in 384 Corning Black Round Bottom well plates and their polarization was measured with a Tecan Infinite F500 plate reader (ex. = 485 nm, em. = 535 nm). The method of fitting of the curves was: “log(agonist) vs. response – Variable slope (four parameters)” from GraphPad Prism. The equation is Y = Bottom + (Top-Bottom)/(1 + 10^((LogEC50-X)*HillSlope)).
from the hit validation library.
f the compound, 100 µM FC-A, or both compound and FC-A, 100 µM each. Background polarization was subtracted f
rom all values, n=3 technical replicates.
Source data are provided as a Source Data file.

SMILES: N=C(N)NCCCC1NCc2ccccc2Sc2ccccc2CNC(=O)C(Cc2ccc(O)cc2)NC(=O)C(CCCN)NC1=O (stereo not shown) [CY007424]
- EC50 ([1]; 14-3-3β 10 μM, labeled CFTRpS753pS768 100 nM, read-out: EC50): 36.1 µM and 36 µM
- FP signal ([1]; compound 476.8 pM): 4
- FP signal ([1]; compound 953.7 pM): 5
- FP signal ([1]; compound 1.90735e-9 M): 5
- FP signal ([1]; compound 3.8147e-9 M): 7
- FP signal ([1]; compound 7.6294e-9 M): 4
- FP signal ([1]; compound 1.52588e-8 M): 7
- FP signal ([1]; compound 3.05176e-8 M): 6
- FP signal ([1]; compound 6.10352e-8 M): 5
- FP signal ([1]; compound 1.2207e-7 M): 5
- FP signal ([1]; compound 2.44141e-7 M): 7
- FP signal ([1]; compound 4.88281e-7 M): 7
- FP signal ([1]; compound 9.76563e-7 M): 7
- FP signal ([1]; compound 1.95313e-6 M): 6
- FP signal ([1]; compound 3.90625e-6 M): 12
- FP signal ([1]; compound 7.8125e-6 M): 27
- FP signal ([1]; compound 1.5625e-5 M): 52
- FP signal ([1]; compound 3.125e-5 M): 122
- FP signal ([1]; compound 6.25e-5 M): 193
- FP signal ([1]; compound 0.000125 M): 244
- FP signal ([1]; compound 0.00025 M): 263
- FP signal ([1]; compound 0.0005 M): 257
- FP signal ([1]; compound 0.001 M): 271
- FP signal ([2]; compound 476.8 pM): 4
- FP signal ([2]; compound 953.7 pM): 5
- FP signal ([2]; compound 1.90735e-9 M): 5
- FP signal ([2]; compound 3.8147e-9 M): 7
- FP signal ([2]; compound 7.6294e-9 M): 4
- FP signal ([2]; compound 1.52588e-8 M): 7
- FP signal ([2]; compound 3.05176e-8 M): 6
- FP signal ([2]; compound 6.10352e-8 M): 5
- FP signal ([2]; compound 1.2207e-7 M): 5
- FP signal ([2]; compound 2.44141e-7 M): 7
- FP signal ([2]; compound 4.88281e-7 M): 7
- FP signal ([2]; compound 9.76563e-7 M): 7
- FP signal ([2]; compound 1.95313e-6 M): 6
- FP signal ([2]; compound 3.90625e-6 M): 12
- FP signal ([2]; compound 7.8125e-6 M): 27
- FP signal ([2]; compound 1.5625e-5 M): 52
- FP signal ([2]; compound 3.125e-5 M): 122
- FP signal ([2]; compound 6.25e-5 M): 193
- FP signal ([2]; compound 0.000125 M): 244
- FP signal ([2]; compound 0.00025 M): 263
- FP signal ([2]; compound 0.0005 M): 257
- FP signal ([2]; compound 0.001 M): 271
- stabilization factor (increase of apparent affinity of CFTR peptide to 14-3-3) [3]: more than 300 x
